Data published in article PMC9181543, “Lysosomal Exocytosis of Olivacine on the Way to Explain Drug Resistance in Cancer Cells” (International Journal of Molecular Sciences, 2022).
Where “and” joins values, the source holds several entries; their conditions need not be identical. Identical values can stand only once. Like-named read-outs stand apart in the source and are kept apart here.

Columns and labels:
NHDF cells = assay: Cell morphology, microscopic observation, NHDF; format: cell-based, human; settings: NHDF normal cells, 24 h incubation
Method: (§1) Olivacine, similar to ellipticine, is a compound with fluorescent properties. Therefore, by analyzing the intensity of fluorescence over time, it is possible to assess the cellular pharmacokinetics of the compounds. At the same time, cell morphology was also assessed. The cells were seeded into a 96-well plate and cultured for 24 h (37 °C, 5% CO2) for cell adhesion to the surface and regeneration. […] The culture plate was placed under a Juli microscope, and the device with the plate inside was put in the CO2 incubator. Pictures were taken every 15 min for 24 h. We have prepared software that allowed us to measure the fluorescence intensity of the indicated cells. Fluorescence analysis was performed for all images (every 15 min) during a period of rapid change in fluorescence intensity and less often at a later period when it stabilized. Three independent experiments were carried out, always analyzing 50 selected cells.

A549 cells = assay: Cell morphology, microscopic observation, A549; format: cell-based, human; settings: for cell morphology: 24 h incubation
Method: as §1

CCRF/CEM cells [1] = tested on: CCRF/CEM cells; design: method as in PMID 11755121; settings: 48 h exposure; cited from earlier work
MCF-7 cells [2] = tested on: MCF-7 cells; design: method as in PMID 11755121; settings: 48 h exposure; cited from earlier work
MV4–11 cells = tested on: MV4–11 cells; design: method as in PMID 25107543; settings: 5 μM; cited from earlier work
MCF-7 cells [3] = tested on: MCF-7 cells; design: method as in PMID 15896464; settings: cited from earlier work
T24 cell = tested on: T24 cell; design: method as in PMID 28138703; settings: T24 cell study; cited from earlier work
Saos-2 cells = tested on: Saos-2 cells; design: method as in PMID 12881704; settings: cited from earlier work
pancreatic cancer cells = tested on: pancreatic cancer cells; design: method as in PMID 10737712; settings: 1 μM; cited from earlier work
CCRF/CEM cells [4] = tested on: CCRF/CEM cells; design: method as in PMID 24898668; settings: cited from earlier work

Structure (SMILES): Cc1nccc2c(C)c3[nH]c4ccccc4c3cc12 [Olivacine, 1,5-dimethyl-6H-pyrido[4,3-b]carbazole]
- cell morphology (NHDF cells; 2 μM): did not negatively affect cell morphology
- cell morphology (NHDF cells; 5 μM): normal
- cell morphology (NHDF cells; 20 μM): only a few fibroblast cells have been disintegrated
- cell morphology (A549 cells; 2 μM): Cytosol degradation
- cell morphology (A549 cells; 20 μM): completely degraded
- concentration at which growth inhibition is visible (A549 cells; microscopic observation, 24 h): 2 µM

Structure (SMILES): Cc1c2ccncc2c(C)c2c1[nH]c1ccccc12 [Ellipticine]
- IC50 (CCRF/CEM cells [1]): 4700 ± 480 nM
- IC50 (MCF-7 cells [2]): 1250 ± 130 nM
- cell cycle effect (MV4–11 cells): arrest of the cell cycle at the G2/M checkpoint
- IC50 (MCF-7 cells [3]): 1520 nM
- cell cycle effect (T24 cell): stops the cell cycle in the G2/M phase
- concentration at which apoptosis was induced (Saos-2 cells): 8 µM and 10 µM
- cell cycle effect (pancreatic cancer cells): arrest cell cycle progression in both G1 and G2/M phases
- cell cycle effect (CCRF/CEM cells [4]): stop the cell cycle in the G0/G1 phase
